In patent EP1247803A2, “Indolinone compounds suitable for modulation of protein kinases” (Sugen, Inc., priority 1996, dated 1998):

Columns and labels:
MET = MET biochemical kinase assay; parameters: species or system human; concentration or dose not given beside the values
How it was run: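 Immunocaptured MET autophosphorylation, read colorimetrically (TMB) via HRP anti-phosphotyrosine antibody. Kinase reaction initiated with buffer containing ATP and divalent metals after compound addition to plate-bound receptor from lysates.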

EGFR = target: T1, EGFR (Homo sapiens, UniProt P00533); test: EGFR ELISA assay (in vitro kinase activity, EGFR captured from A431 cell lysate); assay type: biochemical; parameters: concentration or dose not given beside the values
T1 construct: Add 7 ug A431 cell lysate per well (EGFR source); endogenous in cells; host or cells: A431
How it was run: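 Receptor autophosphorylation was read by ELISA: anti-phosphotyrosine serum and an HRP-linked secondary with ABTS substrate, absorbance at 410 nm (reference 630 nm). The reaction ran 5 min with 3 µM ATP and 5 mM MnCl2 and was quenched by 20 mM EDTA. Compounds were first incubated 30 min with antibody-captured EGFR from A431 cell lysate.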

T1 sequence (P00533 25-1210): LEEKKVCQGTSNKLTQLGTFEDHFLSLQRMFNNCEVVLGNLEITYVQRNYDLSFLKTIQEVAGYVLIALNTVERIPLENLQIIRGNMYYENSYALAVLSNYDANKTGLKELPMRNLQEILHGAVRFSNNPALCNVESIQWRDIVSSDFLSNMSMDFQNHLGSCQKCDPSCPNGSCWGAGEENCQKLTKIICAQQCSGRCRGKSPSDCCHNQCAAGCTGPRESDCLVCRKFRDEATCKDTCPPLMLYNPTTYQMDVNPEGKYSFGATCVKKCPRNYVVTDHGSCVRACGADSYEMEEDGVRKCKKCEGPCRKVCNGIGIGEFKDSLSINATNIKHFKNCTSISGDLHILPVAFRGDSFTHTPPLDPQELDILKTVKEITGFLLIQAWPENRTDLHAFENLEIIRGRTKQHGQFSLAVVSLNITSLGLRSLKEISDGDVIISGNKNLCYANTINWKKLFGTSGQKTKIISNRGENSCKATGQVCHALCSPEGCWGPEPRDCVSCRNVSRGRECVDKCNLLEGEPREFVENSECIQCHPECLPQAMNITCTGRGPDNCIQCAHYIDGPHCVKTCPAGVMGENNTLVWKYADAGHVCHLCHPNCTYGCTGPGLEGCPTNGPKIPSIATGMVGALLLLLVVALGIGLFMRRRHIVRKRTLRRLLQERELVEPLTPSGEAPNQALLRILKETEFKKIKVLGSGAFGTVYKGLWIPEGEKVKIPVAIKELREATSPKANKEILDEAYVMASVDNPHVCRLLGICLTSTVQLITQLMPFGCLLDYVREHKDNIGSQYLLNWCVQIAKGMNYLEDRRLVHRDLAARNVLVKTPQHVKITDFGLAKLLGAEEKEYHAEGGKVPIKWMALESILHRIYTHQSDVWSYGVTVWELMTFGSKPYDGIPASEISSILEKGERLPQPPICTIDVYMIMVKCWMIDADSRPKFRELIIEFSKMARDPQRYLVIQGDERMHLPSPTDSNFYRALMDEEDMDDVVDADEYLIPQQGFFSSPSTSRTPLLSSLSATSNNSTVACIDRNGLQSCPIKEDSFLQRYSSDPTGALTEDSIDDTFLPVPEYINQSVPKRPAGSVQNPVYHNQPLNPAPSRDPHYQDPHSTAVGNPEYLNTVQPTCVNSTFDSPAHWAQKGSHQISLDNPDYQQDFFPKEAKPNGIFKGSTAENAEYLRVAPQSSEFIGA

Row | SMILES | Met Kinase % Inhibition (MET) [%] | Biochem EGFR %Inhibition (EGFR) [%]
1 | Cc1cc(C=C2C(=O)Nc3ccc(CCCl)cc32)cc(C)c1O [10722/G07] | 41.2 | -32.5
2 | CNS(=O)(=O)c1ccc2c(c1)C(=Cc1cccc(OC)c1O)C(=O)N2 [10723/D03] | 69.4 | 33.5
3 | CC(C)(C)c1cc(C=C2C(=O)Nc3ccc(S(=O)(=O)Nc4ccc(C(F)(F)F)cc4)cc32)c(O)c(C(C)(C)C)c1 [10723/E11] | 50.1 | -44.6
4 | O=C1Nc2ccc(S(=O)(=O)Nc3ccc(C(F)(F)F)cc3)cc2C1=Cc1cccc(Br)c1 [10723/E10] | 59.5 | -7.9
5 | CNS(=O)(=O)c1ccc2c(c1)C(=Cc1ccc(OC)cc1O)C(=O)N2 [10723/D09] | 62.6 | -3.8
6 | O=C1Nc2ccc(CCCl)cc2C1=Cc1csc([N+](=O)[O-])c1 [10722/G09] | 51.0 | -5.9
7 | CNS(=O)(=O)c1ccc2c(c1)C(=Cc1ccccc1Br)C(=O)N2 [10723/D07] | 21.9 | 13.4
8 | CC(=O)Oc1ccc(C=C2C(=O)Nc3ccc(S(=O)(=O)Nc4ccc(C(F)(F)F)cc4)cc32)cc1OC(C)=O [10723/E05] | 63.7 | -15.6
9 | CC(=O)Oc1ccc(C=C2C(=O)Nc3ccc(Br)c(C)c32)cc1OC(C)=O [10723/C05] | 73.1 | 35.2
10 | O=C1Nc2ccc(S(=O)(=O)Nc3ccc(C(F)(F)F)cc3)cc2C1=Cc1cc(O)c(O)c(Br)c1 [10723/E04] | 94.5 | 59.8
11 | COc1ccc(C=C2C(=O)Nc3ccc(Br)c(C)c32)c(O)c1 [10723/C09] | 84.6 | 62.7
12 | COc1cccc(C=C2C(=O)Nc3ccc(I)cc32)c1O [10723/B03] | 82.5 | -5.0
13 | O=C1Nc2ccc(CCCl)cc2C1=Cc1ccc(C(=O)O)cc1 [10722/G05] | 9.7 | -9.0
14 | O=C1Nc2ccc(S(=O)(=O)Nc3ccc(C(F)(F)F)cc3)cc2C1=Cc1ccccc1Br [10723/E07] | 47.7 | 38.1
15 | O=C1Nc2ccc(CCCl)cc2C1=Cc1ccc([N+](=O)[O-])s1 [10722/G04] | 63.2 | -13.3
16 | CCCCN(CCCC)c1ccc(C=C2C(=O)Nc3ccc(CCCl)cc32)cc1 [10722/G10] | 27.0 | 3.3
17 | CC(C)(C)c1cc(C=C2C(=O)Nc3ccc(I)cc32)c(O)c(C(C)(C)C)c1 [10723/B11] | 62.6 | -26.0
18 | COc1ccc(C=C2C(=O)Nc3ccc(S(=O)(=O)Nc4ccc(C(F)(F)F)cc4)cc32)c(O)c1 [10723/E09] | 91.7 | 29.1
19 | CNS(=O)(=O)c1ccc2c(c1)C(=Cc1ccc(O)c(C)c1)C(=O)N2 [10723/D06] | 60.0 | -7.4
20 | O=C1Nc2ccc(I)cc2C1=Cc1ccccc1Br [10723/B07] | 86.7 | 28.8
